Assay results taken from patent US12350269B2 (Alexion Pharmaceuticals, Inc., priority 2015, dated 2025).
pIC50: −log10 of the molar value.

Tests used:
[1] = test system: rat collagen induced arthritis; test: Rat collagen induced arthritis model; format: in vivo
Procedure: Collagen antibody titers were determined by ELISA (R&D Systems). Steady-state serum Cmax was determined using liquid chromatography-tandem mass spectrometry.
The average plasma concentrations (Cmax) for each dosing group is shown at the right of the graph. Asterisks denote statistical significant relative to vehicle by student T test (p<0.05).

JAK1/3 [2] = test: Healthy normal human whole blood assay: T-cell, IL2 stimulation, pSTAT5 Y694 readout; format: cell-based
IL2, IL4, IL6 signaling = test: Phase 1 study: whole blood PD, IL2, IL4, IL6 (JAK/STAT) signaling; format: in vivo, human
Procedure: Human Whole Blood Assays: Inhibition of SYK- and JAK-dependent and independent signaling was determined by stimulating human whole blood with various agonists against BCR and cytokine receptors. 100 μL aliquots of heparinized healthy human whole blood was stimulated as previously described (Coffey et al, J. of Pharm. and Experimental Therapeutics, 351:538-548, 2014), using an 8-point concentration curve to determine IC50's. Signaling and activation responses were determined by Fluorescence-activated cell sorting (“FACS”). For the clinical trial, whole blood samples were collected prior to and after dosing. Percent inhibition was calculated by normalizing to the pre-dose stimulation response.
Pharmacokinetics (“PK”), pharmacodynamics (“PD”), and safety were monitored. Response was assessed by standard criteria. The level of inhibition of SYK and JAK was determined using a variety of whole blood assays measuring signaling via receptors for the B-cell antigen, IL2, IL4, IL6, and GM-CSF. Serum markers of tumor burden, including CCL3, CCL4, and other markers of inflammation (β2M and CRP), were also being measured.

primary CLL cells [3] = test: Primary CLL apoptosis (propidium iodide/Annexin V, PARP cleavage); format: cell-based, human
Procedure: (§1) Isolated CLL cells were cultured in RPMI-1640 with 15% fetal bovine serum (Gibco, Grand Island, NY, USA), penicillin (100 IU), and streptomycin (100 μg/mL), at a density of 1×10^7 cells/mL in the presence or absence of […] CpG, 100 ng/mL CD40L, 10 ng/mL IL-4. Anti-IgM stimulation was conducted with plate-bound anti-IgM (10 μg/mL). CLL cells were stimulated with 10 ng/mL IL-6 (R&D Systems, Minneapolis, MN), to detect the phosphorylation of JAK1/JAK2 (Cell Signaling Technology, Danvers, MA) and STAT3 (Cell Signaling Technology, Danvers, MA, USA).

primary CLL cells [4] = test: Primary CLL cell viability assay (propidium iodide, 72 hours); format: cell-based, human
Procedure: as §1
Ten thousand events in a live cell gate were counted by a FACS LSR2 (BD Biosciences) and the data was normalized to the matched vehicle control for each specimen (100%). IC50 was then generated using the GraphPad Prism 6 program (San Diego, CA, USA).

[5] = test system: WT BTK-transfected TMD8 cells; test: Cell growth of transfected TMD8 cells (Muse Count & Viability); format: cell-based; settings: 250 nM, 7 days
Excerpt: Cell transfection, cell count and viability assay: TMD8 cells were transfected with constructs of WT BTK or BTK^C481S mutants using kit V, Program U-13 on Amaxa Nucleofector, according to the manufacturer's protocols (Amaxa, Cologne, Germany). After transfection, the cells were co-cultured with NKTert cells in a 24-well plate for 24 hrs for recovery.

JAK1/3 [6] = test: Healthy normal human whole blood assay: T-cell, IL4 stimulation, PSTAT6 Y641 readout; format: cell-based
15 DLBCL cell lines = test: DLBCL cell line panel: caspase 3 cleavage and Edu incorporation by FACS; format: cell-based
Procedure: DLBCL Cell Line Viability Assays: Cell lines, purchased from ATCC, were screened using the CellTiter Glo (Promega) assay in 384 well plates using a ten-point concentration response curve to generate IC50's. Each IC50 value is an average of at least four replicate experiments. Subsequent analysis using a FACS based caspase 3 cleavage detection kit (BD Biosciences) and Edu incorporation were performed.
In a panel of 15 cell lines representing both ABC and GCB subtypes, 9 underwent apoptosis and an additional 2 underwent cell cycle arrest.
FIG. 1 and FIG. 2 depicts bar graphs that show the percent inhibition of Edu incorporation and percent induction of caspase 3 cleavage by FACS analysis, respectively.

[7] = 24 hours, in the presence of ZVAD

CCS(=O)(=O)N1CCN(c2ccc(Nc3ncc(C(N)=O)c(NC4CC4)n3)cc2)CC1 [cerdulatinib, 4-(cyclopropylamino)-2-(4-(4-(ethylsulfonyl)piperazin-1-yl)phenylamino)pyrimidine-5-carboxamide]
Caverage corresponding to complete arrest of inflammation and auto-antibody generation [1]: 0.3 to 0.4 µM
average plasma concentration at which inflammation and joint destruction were arrested [1]: 0.3 µM
pIC50 (JAK1/3 [2]): 6.70
JAK/STAT signaling inhibition (IL2, IL4, IL6 signaling; Cmin/Cmax): 60-80%
% Inhibition IL2, IL4, IL6 signaling (IL2, IL4, IL6 signaling; Patient 1, 65 mg PO QD): 60-100%
apoptosis in U-CLL compared to M-CLL and in high versus low CD49d or ZAP70 expression (primary CLL cells [3]): significantly greater apoptosis
apoptosis with or without IL-4/CD40L support (primary CLL cells [3]): induced apoptosis in the presence or absence of IL-4/CD40L support
cleavage/activation of caspase 3 and 85 kDa PARP sub-fragment (primary CLL cells [3]): induce cleavage/activation
apoptosis of CLL cells (primary CLL cells [3]; 24 patients, 24, 48 and 72 hours): induced apoptosis in a concentration and time dependent manner
anti-apoptotic protein MCL1 (primary CLL cells [3]; [7]): decreased
levels of pro-apoptotic protein NOXA (primary CLL cells [3]; [7]): increased
sensitivity of CLL cells with high-risk genetic abnormalities (del (11q), trisomy 12, del(17p)) versus del (13q) or none (primary CLL cells [4]): more sensitive
sensitivity of CLL cells with unmutated IGHV (N=33) versus mutated IGHV (N=27) (primary CLL cells [4]; P=0.0395): more sensitive
cell growth [5]: similarly inhibited
pIC50 (JAK1/3 [6]): 6.24
activity against DLBCL cell lines (15 DLBCL cell lines; 2 μM): broadly active
induction of apoptosis in cell lines (15 DLBCL cell lines; 2 μM): induced apoptosis in the majority of cell lines
additional cell lines that underwent cell cycle arrest (15 DLBCL cell lines; panel of 15 cell lines): 2
number of cell lines that underwent apoptosis (15 DLBCL cell lines; panel of 15 cell lines, ABC and GCB subtypes): 9
response of DB, TOLEDO, and RCK8 cell lines (15 DLBCL cell lines; three of the 15 cell lines): resistant
concentration required to induce apoptosis and/or cell cycle arrest (15 DLBCL cell lines; variable, generally observed): ~2 µM
